From ChEMBL document CHEMBL1134142, “Prodrugs of 3-amido bearing pseudomycin analogues: novel antifungal agents” (Bioorg Med Chem Lett, 2001) come the findings set out here.

The structures appear in SMILES notation. In brackets after ≈: the same amount, converted by molar mass. Bridge positions count the residues as written; N and C are the ends. Square brackets hold non-standard residues; d marks the D form. Side chains are listed from the residue outwards. Peptide text beside a SMILES is read from it. * marks the point of attachment. Tetradecanoyl(3R-OH) = CCCCCCCCCCC[C@@H](O)CC(=O)*; Asp(3S-OH) = N[C@H](C(=O)O)[C@H](O)C(=O)O; Thr(4-Cl) = N[C@H](C(=O)O)[C@H](O)CCl; aThr = C[C@H](O)[C@H](N)C(=O)O; dDab = NCC[C@@H](N)C(=O)O; NHCH2CH2NMe2 = CN(C)CCN*; Dab = NCC[C@H](N)C(=O)O; Dhb = C/C=C(\N)C(=O)O; X1 = CCN(CC)CCN*; NHcPr = C1CC1N*

Data set [1] deals with Cryptococcus neoformans. Briefly: Minimum inhibitory concentration against Cryptococcus neoformans.
Data set [2] has as its system Aspergillus fumigatus. Briefly: Minimum inhibitory concentration against Aspergillus fumigatus. It counts as functional.
For data set [3], the system named is Candida albicans. Briefly: Minimum inhibitory concentration against Candida albicans. It is filed as functional.
Data set [4] in a line: The compound was tested for toxicity in tail vein irritation model; No. The following applies: mouse.
For data set [5], the system named is Cryptococcus neoformans. Briefly: (§1) Compound was evaluated in vivo for its effective dose against cryptococosis. It counts as functional.
Data set [6] is described as follows: The compound was tested for toxicity in tail vein irritation model; Yes. The following applies: mouse.
The species named for data set [7] is Mus musculus. Briefly: Maximum tolerated dose against tail vein irritation determined by dose elevation study. It counts as functional.
Data set [8] deals with Mus musculus. Briefly: Compound was evaluated in vivo for its effective dose against Murine candidiasis. It counts as functional.
In data set [9] the test system is Mus musculus. Described as §1. It is filed as functional.

Broadly, the MIC is the lowest concentration found to suppress growth. A higher MIC goes with a need for much substance. On to `C/C=C1\NC(=O)[C@H]([C@H](C)O)NC(=O)[C@H](CCNC(=O)OCOC(=O)C(C)C)NC(=O)[C@H](CCCCNC(=O)OCOC(=O)C(C)C)NC(=O)[C@H](CC(=O)NC(C)(C)CC)NC(=O)[C@@H](CCNC(=O)OCOC(=O)C(C)C)NC(=O)[C@@H](NC(=O)C[C@H](O)CCCCCCCCCCC)COC(=O)[C@H]([C@H](O)CCl)NC(=O)[C@H]([C@H](O)C(=O)O)NC1=O`, for which the MIC in data set [1], in [2] and in [3] was 20 µg/mL (≈ 11.7 µM) throughout. Also, the Toxicity result in data set [4] is listed as “Not toxic”.
The ED50 is the dose that gives a 50% effect, or the effect in half of the subjects. High values mean a need for a large dose, low ones an effect at a small dose. For `C/C=C1\NC(=O)[C@H]([C@H](C)O)NC(=O)[C@H](CCN)NC(=O)[C@H](CCCCN)NC(=O)[C@H](CC(=O)O)NC(=O)[C@@H](CCN)NC(=O)[C@@H](NC(=O)C[C@H](O)CCCCCCCCCCC)COC(=O)[C@H]([C@H](O)CCl)NC(=O)[C@H]([C@H](O)C(=O)O)NC1=O` [PSEUDOMYCIN B] ({Tetradecanoyl(3R-OH)}-S[dDab]DK[Dab][aThr][Dhb][Asp(3S-OH)][Thr(4-Cl)]; ester 1-C), it took a dose of 1.8 mg/kg to reach the 50% effect level in data set [5] (ED50). Further, the Toxicity result in data set [6] was “Active”. The results for the MIC in data set [1], in data set [2] and in data set [3] were 0.01 µg/mL (≈ 0.00828 µM), 20 µg/mL (≈ 16.6 µM) and 0.625 µg/mL (≈ 0.517 µM), respectively. In addition, the Dose elevation in [7] came out at 20 mg/kg.
In the case of `C/C=C1\NC(=O)[C@H]([C@H](C)O)NC(=O)[C@H](CCNC(=O)OCOC(=O)C(C)(C)C)NC(=O)[C@H](CCCCNC(=O)OCOC(=O)C(C)(C)C)NC(=O)[C@H](CC(=O)NC2CC2)NC(=O)[C@@H](CCNC(=O)OCOC(=O)C(C)(C)C)NC(=O)[C@@H](NC(=O)C[C@H](O)CCCCCCCCCCC)COC(=O)[C@H]([C@H](O)CCl)NC(=O)[C@H]([C@H](O)C(=O)O)NC1=O`, the Toxicity entry in data set [4] is recorded as “Not toxic”. Further, the ED50 in [8] is below 5 mg/kg.
With `C/C=C1\NC(=O)[C@H]([C@H](C)O)NC(=O)[C@H](CCN)NC(=O)[C@H](CCCCN)NC(=O)[C@H](CC(=O)NC2CC2)NC(=O)[C@@H](CCN)NC(=O)[C@@H](NC(=O)C[C@H](O)CCCCCCCCCCC)COC(=O)[C@H]([C@H](O)CCl)NC(=O)[C@H]([C@H](O)C(=O)O)NC1=O` ({Tetradecanoyl(3R-OH)}-S[dDab]D(NHcPr)K[Dab][aThr][Dhb][Asp(3S-OH)][Thr(4-Cl)]; ester 1-C), the ED50 in data set [9] is 2.9 mg/kg; in data set [8], below 5 mg/kg. Moreover, the Toxicity entry in data set [4] is “Not toxic”. In data set [7], this compound gave a Dose elevation of 50 mg/kg.
Turning to `C/C=C1\NC(=O)[C@H]([C@H](C)O)NC(=O)[C@H](CCN)NC(=O)[C@H](CCCCN)NC(=O)[C@H](CC(=O)NCCN(C)C)NC(=O)[C@@H](CCN)NC(=O)[C@@H](NC(=O)C[C@H](O)CCCCCCCCCCC)COC(=O)[C@H]([C@H](O)CCl)NC(=O)[C@H]([C@H](O)C(=O)O)NC1=O` ({Tetradecanoyl(3R-OH)}-S[dDab]D(NHCH2CH2NMe2)K[Dab][aThr][Dhb][Asp(3S-OH)][Thr(4-Cl)]; ester 1-C), the figures for the ED50 in data set [9] and in [8] were 2.5 mg/kg and below 5 mg/kg, respectively. Moreover, the Toxicity entry in data set [4] was “Not toxic”. The same compound gave a Dose elevation in [7] of 50 mg/kg.
Regarding `C/C=C1\NC(=O)[C@H]([C@H](C)O)NC(=O)[C@H](CCNC(=O)OCOC(=O)C(C)(C)C)NC(=O)[C@H](CCCCNC(=O)OCOC(=O)C(C)(C)C)NC(=O)[C@H](CC(=O)NCCN(C)C)NC(=O)[C@@H](CCNC(=O)OCOC(=O)C(C)(C)C)NC(=O)[C@@H](NC(=O)C[C@H](O)CCCCCCCCCCC)COC(=O)[C@H]([C@H](O)CCl)NC(=O)[C@H]([C@H](O)C(=O)O)NC1=O`, the ED50 in data set [9] was 0.44 mg/kg; in data set [8], below 5 mg/kg. Besides, in data set [4], the Toxicity entry was “Not toxic”.
In the case of `C/C=C1\NC(=O)[C@H]([C@H](C)O)NC(=O)[C@H](CCN)NC(=O)[C@H](CCCCN)NC(=O)[C@H](CC(N)=O)NC(=O)[C@@H](CCN)NC(=O)[C@@H](NC(=O)C[C@H](O)CCCCCCCCCCC)COC(=O)[C@H]([C@H](O)CCl)NC(=O)[C@H]([C@H](O)C(=O)O)NC1=O` ({Tetradecanoyl(3R-OH)}-S[dDab]NK[Dab][aThr][Dhb][Asp(3S-OH)][Thr(4-Cl)]; ester 1-C), the Toxicity entry in data set [6] is “Active”. The MIC in data set [1] was below 0.01 µg/mL; in [2], 10 µg/mL (≈ 8.29 µM); in [3], 2.5 µg/mL (≈ 2.07 µM).
With `C/C=C1\NC(=O)[C@H]([C@H](C)O)NC(=O)[C@H](CCNC(=O)OCOC(=O)C(C)(C)C)NC(=O)[C@H](CCCCNC(=O)OCOC(=O)C(C)(C)C)NC(=O)[C@H](CC(=O)NCC(=O)OC)NC(=O)[C@@H](CCNC(=O)OCOC(=O)C(C)(C)C)NC(=O)[C@@H](NC(=O)C[C@H](O)CCCCCCCCCCC)COC(=O)[C@H]([C@H](O)CCl)NC(=O)[C@H]([C@H](O)C(=O)O)NC1=O`, the ED50 in [9] was above 5 mg/kg; in data set [8], below 5 mg/kg. For the same compound, the Toxicity entry in data set [4] is reported as “Not toxic”. In addition, the Dose elevation in data set [7] was 125 mg/kg.
In the same order, the values of `C/C=C1\NC(=O)[C@H]([C@H](C)O)NC(=O)[C@H](CCN)NC(=O)[C@H](CCCCN)NC(=O)[C@H](CC(=O)NCC(=O)OC)NC(=O)[C@@H](CCN)NC(=O)[C@@H](NC(=O)C[C@H](O)CCCCCCCCCCC)COC(=O)[C@H]([C@H](O)CCl)NC(=O)[C@H]([C@H](O)C(=O)O)NC1=O` ({Tetradecanoyl(3R-OH)}-S[dDab]D([Gly-OMe])K[Dab][aThr][Dhb][Asp(3S-OH)][Thr(4-Cl)]; ester 1-C) are 2.9 mg/kg, below 5 mg/kg, “Not toxic” and below 50 mg/kg.
For `C/C=C1\NC(=O)[C@H]([C@H](C)O)NC(=O)[C@H](CCNC(=O)OCOC(=O)C(C)C)NC(=O)[C@H](CCCCNC(=O)OCOC(=O)C(C)C)NC(=O)[C@H](CC(=O)NCC(=O)OC)NC(=O)[C@@H](CCNC(=O)OCOC(=O)C(C)C)NC(=O)[C@@H](NC(=O)C[C@H](O)CCCCCCCCCCC)COC(=O)[C@H]([C@H](O)CCl)NC(=O)[C@H]([C@H](O)C(=O)O)NC1=O`, in data set [4], the Toxicity entry is given as “Not toxic”. The same compound came in with a Dose elevation in [7] of 125 mg/kg. In addition, the ED50 in [8] is below 5 mg/kg.
As for `C/C=C1\NC(=O)[C@H]([C@H](C)O)NC(=O)[C@H](CCN)NC(=O)[C@H](CCCCN)NC(=O)[C@H](CC(=O)NCCN(CC)CC)NC(=O)[C@@H](CCN)NC(=O)[C@@H](NC(=O)C[C@H](O)CCCCCCCCCCC)COC(=O)[C@H]([C@H](O)CCl)NC(=O)[C@H]([C@H](O)C(=O)O)NC1=O` ({Tetradecanoyl(3R-OH)}-S[dDab]D(X1)K[Dab][aThr][Dhb][Asp(3S-OH)][Thr(4-Cl)]; ester 1-C), the Toxicity entry in [6] is on record as “Active”. Further, the MIC in data set [1] is below 0.01 µg/mL; in data set [2], 10 µg/mL (≈ 7.66 µM); in data set [3] it was 10 µg/mL (≈ 7.66 µM).
As to `C/C=C1\NC(=O)[C@H]([C@H](C)O)NC(=O)[C@H](CCNC(=O)OCOC(=O)C(C)C)NC(=O)[C@H](CCCCNC(=O)OCOC(=O)C(C)C)NC(=O)[C@H](CC(=O)NCCN(CC)CC)NC(=O)[C@@H](CCNC(=O)OCOC(=O)C(C)C)NC(=O)[C@@H](NC(=O)C[C@H](O)CCCCCCCCCCC)COC(=O)[C@H]([C@H](O)CCl)NC(=O)[C@H]([C@H](O)C(=O)O)NC1=O`, the MIC in data set [1], in data set [2] and in data set [3] was 20 µg/mL (≈ 11.5 µM) each time. Also, the Toxicity result in data set [4] is listed as “Not toxic”.
For the compound `C/C=C1\NC(=O)[C@H]([C@H](C)O)NC(=O)[C@H](CCN)NC(=O)[C@H](CCCCN)NC(=O)[C@H](CC(=O)NC(C)(C)CC)NC(=O)[C@@H](CCN)NC(=O)[C@@H](NC(=O)C[C@H](O)CCCCCCCCCCC)COC(=O)[C@H]([C@H](O)CCl)NC(=O)[C@H]([C@H](O)C(=O)O)NC1=O`, the Toxicity result in data set [6] was “Active”. In addition, the MIC in [1] was below 0.01 µg/mL; in [2], above 20 µg/mL; in data set [3], 0.312 µg/mL (≈ 0.244 µM).
In the case of `C/C=C1\NC(=O)[C@H]([C@H](C)O)NC(=O)[C@H](CCNC(=O)OCOC(=O)C(C)C)NC(=O)[C@H](CCCCNC(=O)OCOC(=O)C(C)C)NC(=O)[C@H](CC(N)=O)NC(=O)[C@@H](CCNC(=O)OCOC(=O)C(C)C)NC(=O)[C@@H](NC(=O)C[C@H](O)CCCCCCCCCCC)COC(=O)[C@H]([C@H](O)CCl)NC(=O)[C@H]([C@H](O)C(=O)O)NC1=O`, the MIC in [1], in data set [2] and in [3] was 20 µg/mL (≈ 12.2 µM) throughout. Also, the Toxicity entry in [4] is given as “Not toxic”.
In the case of `C/C=C1\NC(=O)[C@H]([C@H](C)O)NC(=O)[C@H](CCNC(=O)OCOC(=O)C(C)C)NC(=O)[C@H](CCCCNC(=O)OCOC(=O)C(C)C)NC(=O)[C@H](CC(=O)NCCN(C)C)NC(=O)[C@@H](CCNC(=O)OCOC(=O)C(C)C)NC(=O)[C@@H](NC(=O)C[C@H](O)CCCCCCCCCCC)COC(=O)[C@H]([C@H](O)CCl)NC(=O)[C@H]([C@H](O)C(=O)O)NC1=O`, the Toxicity entry in data set [4] was “Not toxic”. Besides, in data set [7], the Dose elevation was 125 mg/kg. This compound also yielded an ED50 in [8] of 6.6 mg/kg.
On to `C/C=C1\NC(=O)[C@H]([C@H](C)O)NC(=O)[C@H](CCNC(=O)OCOC(=O)C(C)C)NC(=O)[C@H](CCCCNC(=O)OCOC(=O)C(C)C)NC(=O)[C@H](CC(=O)NC2CC2)NC(=O)[C@@H](CCNC(=O)OCOC(=O)C(C)C)NC(=O)[C@@H](NC(=O)C[C@H](O)CCCCCCCCCCC)COC(=O)[C@H]([C@H](O)CCl)NC(=O)[C@H]([C@H](O)C(=O)O)NC1=O`, for which the ED50 is 0.56 mg/kg in data set [9] and below 5 mg/kg in data set [8]. For the same compound, in data set [4], the Toxicity result is listed as “Not toxic”. The compound further returned a Dose elevation in data set [7] of 125 mg/kg.
